{"source": "patent US20260248087A1", "about": "“GENERATING DOUBLED HAPLOID PLANTS” (Syngenta Crop Protection AG, priority 2023, published 2026)", "key": {"GST27": {"tested_on": "GST27", "assay": "GST27 induction, metcamifen and thiamethoxam co-treatment in liquid medium", "format": "cell-based, maize", "procedure": "For the examples below, GST27 was used as a quick indicator for treatment effectiveness.\n(§1) Isolated embryos were placed in a Petri dish on filter paper wetted with liquid Murashige and Skoog Medium (MS medium) containing colchicine and a formulation of metcamifen at 800 mg/L, TMX at 4000 mg/L, or a combination of 800 mg/L metcamifen and 4000 mg/L TMX. The colchicine treatment control used the same conditions except with a medium containing 3.5 g/L Gelzan as compared to the liquid medium without Gelzan. The co-treatments incubated for 24 or 48 hours at 28° C. with 150 PAR light and were conducted on 2 genotypes with 2 replicates. The effects on GST expression, potting rate, and transplant rate are reported (see Table 16). The rate of diploid escapes observed increased to 6.4-8.5% in the 24-hour co-treatments with 4000 mg/L TMX and 4000 mg/L TMX combined with 800 mg/L metcamifen. In all other co-treatments, the escape rate was 0%. […] The best transplant rates observed were in the 24-hour duration 4000 mg/L TMX co-treatment (90%) compared to the control (72%).\n(§2) In a separate experiment, additional concentrations of metcamifen and TMX co-treatment were tested in liquid co-treatments. The experimental setup was the same as described above for the data in Table 16, but the co-treatment concentrations were varied. […] The decreased concentrations were associated with lower rates of escapes in the 24-hour co-treatments, only the metcamifen with TMX combination co-treatment produced escapes (1.8%). Potting and transplant rates remained high, with the best performance in the 24-hour metcamifen with TMX combination co-treatment (96% potting, and 87% transplant) compared to the colchicine-only control (60% potting, and 47% transplant) (see Table 17). In all liquid media co-treatments, higher rates of bacterial and/or fungal contamination were observed. In total, 35% of the attempted experiments were discarded due to contamination issues and excluded from the data analysis."}, "embryos from maize ears [1]": {"tested_on": "embryos from maize ears", "assay": "Potting and transplant rate, co-treatment with metcamifen and thiamethoxam during colchicine doubling", "format": "in vivo", "source_text": "(§3) As used herein, the term “potted rate” or “potting rate” refers to the percent of germinated embryos successfully transferred to soil from total treated haploid embryos. The “potted rate” is used as an indication of plant health in monitoring the success of recovery and growth after treatment of haploids. As used herein, the term “transplant rate” refers to the survival of healthy plants after embryos were germinated and transferred to soil.\n(§4) To assess the impact of the safener and vigor enhancing compounds on the full DH production pipeline, experiments were designed and conducted spanning haploid embryo isolation, doubling treatment, germination, potting, growth to maturity, selfing, and seed set evaluation. Embryos from maize ears of two genotypes were isolated and co-treated with both metcamifen and thiamethoxam during the colchicine doubling treatment, in triplicate. Metcamifen was added in the Murashige and Skoog Medium (MS medium) at concentrations ranging from 400 to 800 mg/L in combination with TMX at concentrations ranging from 4000 to 6000 mg/L. Control co-treatments with metcamifen alone, TMX alone, or colchine-only were run in parallel. Concentrations for co-treatments were selected based on best outcomes from experiments in Examples 1-8. The co-treatments incubated for 24 and 48 hours at 28° C. with 150 PAR light. Resulting embryos were germinated and the percentage of embryos successfully transferred to soil was measured as the potting rate. The survival of healthy plants was measured as the transplant rate."}, "embryos from maize ears [2]": {"tested_on": "embryos from maize ears", "assay": "Ear kernel setting rates and DH yield after co-treatment with metcamifen and thiamethoxam", "format": "in vivo", "conditions": "for Ears >4 Rate Mean / Ears >49 Rate Mean: co-treatment with colchicine", "procedure": "as §4, with “transplant rate. […]” for “transplant rate.”\nOne way of measuring the success of DH production is a ratio of output:input, defined as “DH yield”, where a larger ratio is typically desirable for a more efficient production system. In this study, we measured this in two ways: DH ears/total haploid embryos and DH ears/transplants (see Table 15)."}, "isolated embryos": {"tested_on": "isolated embryos", "assay": "Potting and transplant rate, metcamifen and thiamethoxam co-treatment in liquid medium", "format": "in vivo, maize", "source_text": "as §3, §1, §2"}, "[3]": {"conditions": "Table 16, liquid medium: metcamifen 800 mg/L, 24 Hour"}, "[4]": {"conditions": "Table 16, liquid medium: metcamifen 800 mg/L, 48 Hour"}, "[5]": {"conditions": "Table 17, liquid medium: metcamifen 800 mg/L, 24 Hour"}, "[6]": {"conditions": "Table 17, liquid medium: metcamifen 800 mg/L, 48 Hour"}, "[7]": {"conditions": "Table 16, liquid medium: TMX 4000 mg/L, 24 Hour"}, "[8]": {"conditions": "Table 16, liquid medium: TMX 4000 mg/L, 48 Hour"}, "[9]": {"conditions": "Table 17, liquid medium: TMX 4000 mg/L, 24 Hour"}, "[10]": {"conditions": "Table 17, liquid medium: TMX 6000 mg/L, 48 Hour"}}, "note": "Values joined by “and” are separate entries in the source; they are usually repeats but may differ in a detail not shown here. Equal entries are not always repeated."}
{"compound": "CNC(=O)Nc1ccc(S(=O)(=O)NC(=O)c2ccccc2OC)cc1", "note": "[Metcamifen, metcamifen]", "values": [{"measurement": "GST27 Induction After", "setting": "GST27; [3]", "result": 270, "unit": "ng/mg TSP"}, {"measurement": "GST27 Induction Before", "setting": "GST27; [3]", "result": 0, "unit": "ng/mg TSP"}, {"measurement": "GST27 Induction After", "setting": "GST27; [4]", "result": 396, "unit": "ng/mg TSP"}, {"measurement": "GST27 Induction Before", "setting": "GST27; [4]", "result": 0, "unit": "ng/mg TSP"}, {"measurement": "GST27 Induction After", "setting": "GST27; [5]", "result": 263, "unit": "ng/mg TSP"}, {"measurement": "GST27 Induction Before", "setting": "GST27; [5]", "result": 0, "unit": "ng/mg TSP"}, {"measurement": "GST27 Induction After", "setting": "GST27; [6]", "result": 340, "unit": "ng/mg TSP"}, {"measurement": "GST27 Induction Before", "setting": "GST27; [6]", "result": 4, "unit": "ng/mg TSP"}, {"measurement": "Potted Rate Mean", "setting": "embryos from maize ears [1]; metcamifen 800 mg/L, 24 hours", "result": 76, "unit": "%"}, {"measurement": "Transplant Rate Mean", "setting": "embryos from maize ears [1]; metcamifen 800 mg/L, 24 hours", "result": 68, "unit": "%"}, {"measurement": "Potted Rate Mean", "setting": "embryos from maize ears [1]; metcamifen 800 mg/L, 48 hours", "result": 15, "unit": "%"}, {"measurement": "Transplant Rate Mean", "setting": "embryos from maize ears [1]; metcamifen 800 mg/L, 48 hours", "result": 15, "unit": "%"}, {"measurement": "Ears >4 Rate Mean", "setting": "embryos from maize ears [2]; metcamifen 800 mg/L, 24 hours", "result": 38, "unit": "%"}, {"measurement": "Ears >49 Rate Mean", "setting": "embryos from maize ears [2]; metcamifen 800 mg/L, 24 hours", "result": 24, "unit": "%"}, {"measurement": "Ears >4 Rate Mean", "setting": "embryos from maize ears [2]; metcamifen 800 mg/L, 48 hours", "result": 9, "unit": "%"}, {"measurement": "Ears >49 Rate Mean", "setting": "embryos from maize ears [2]; metcamifen 800 mg/L, 48 hours", "result": 4, "unit": "%"}, {"measurement": "Ears >4 DH Yield, DH Ears/Total Haploids, Mean", "setting": "embryos from maize ears [2]; metcamifen 800 mg/L, 24 hours", "result": 0.33}, {"measurement": "Ears >4 DH Yield, DH Ears/Transplants, Mean", "setting": "embryos from maize ears [2]; metcamifen 800 mg/L, 24 hours", "result": 0.47}, {"measurement": "Ears >49 DH Yield, DH Ears/Total Haploids, Mean", "setting": "embryos from maize ears [2]; metcamifen 800 mg/L, 24 hours", "result": 0.21}, {"measurement": "Ears >49 DH Yield, DH Ears/Transplants, Mean", "setting": "embryos from maize ears [2]; metcamifen 800 mg/L, 24 hours", "result": 0.30}, {"measurement": "Ears >4 DH Yield, DH Ears/Total Haploids, Mean", "setting": "embryos from maize ears [2]; metcamifen 800 mg/L, 24 hours, listed as metcamifen", "result": "increased significantly"}, {"measurement": "Ears >4 DH Yield, DH Ears/Total Haploids, Mean", "setting": "embryos from maize ears [2]; metcamifen 800 mg/L, 48 hours", "result": 0.07}, {"measurement": "Ears >4 DH Yield, DH Ears/Transplants, Mean", "setting": "embryos from maize ears [2]; metcamifen 800 mg/L, 48 hours", "result": 0.61}, {"measurement": "Ears >49 DH Yield, DH Ears/Total Haploids, Mean", "setting": "embryos from maize ears [2]; metcamifen 800 mg/L, 48 hours", "result": 0.03}, {"measurement": "Ears >49 DH Yield, DH Ears/Transplants, Mean", "setting": "embryos from maize ears [2]; metcamifen 800 mg/L, 48 hours", "result": 0.25}, {"measurement": "Potting Rate Mean", "setting": "isolated embryos; [3]", "result": 92.5, "unit": "%"}, {"measurement": "Transplant Rate Mean", "setting": "isolated embryos; [3]", "result": 88.2, "unit": "%"}, {"measurement": "Potting Rate Mean", "setting": "isolated embryos; [4]", "result": 21.5, "unit": "%"}, {"measurement": "Transplant Rate Mean", "setting": "isolated embryos; [4]", "result": 20.4, "unit": "%"}, {"measurement": "Potting Rate Mean", "setting": "isolated embryos; [5]", "result": 86.2, "unit": "%"}, {"measurement": "Transplant Rate Mean", "setting": "isolated embryos; [5]", "result": 74.1, "unit": "%"}, {"measurement": "Potting Rate Mean", "setting": "isolated embryos; [6]", "result": 9.2, "unit": "%"}, {"measurement": "Transplant Rate Mean", "setting": "isolated embryos; [6]", "result": 9.2, "unit": "%"}]}
{"compound": "CN1COCN(Cc2cnc(Cl)s2)/C1=N\\[N+](=O)[O-]", "note": "[TMX, thiamethoxam]", "values": [{"measurement": "GST27 Induction After", "setting": "GST27; [7]", "result": 255, "unit": "ng/mg TSP"}, {"measurement": "GST27 Induction Before", "setting": "GST27; [7]", "result": 0, "unit": "ng/mg TSP"}, {"measurement": "GST27 Induction After", "setting": "GST27; [8]", "result": 194, "unit": "ng/mg TSP"}, {"measurement": "GST27 Induction Before", "setting": "GST27; [8]", "result": 1, "unit": "ng/mg TSP"}, {"measurement": "GST27 Induction After", "setting": "GST27; [9]", "result": 193, "unit": "ng/mg TSP"}, {"measurement": "GST27 Induction Before", "setting": "GST27; [9]", "result": 5, "unit": "ng/mg TSP"}, {"measurement": "GST27 Induction After", "setting": "GST27; [10]", "result": 208, "unit": "ng/mg TSP"}, {"measurement": "GST27 Induction Before", "setting": "GST27; [10]", "result": 13, "unit": "ng/mg TSP"}, {"measurement": "Potted Rate Mean", "setting": "embryos from maize ears [1]; TMX 4000 mg/L, 48 hours", "result": 79, "unit": "%"}, {"measurement": "Transplant Rate Mean", "setting": "embryos from maize ears [1]; TMX 4000 mg/L, 48 hours", "result": 77, "unit": "%"}, {"measurement": "Potted Rate Mean", "setting": "embryos from maize ears [1]; TMX 6000 mg/L, 24 hours", "result": 95, "unit": "%"}, {"measurement": "Transplant Rate Mean", "setting": "embryos from maize ears [1]; TMX 6000 mg/L, 24 hours", "result": 93, "unit": "%"}, {"measurement": "Ears >4 DH Yield, DH Ears/Total Haploids, Mean", "setting": "embryos from maize ears [2]; TMX 4000 mg/L, 48 hours", "result": 0.29}, {"measurement": "Ears >4 DH Yield, DH Ears/Transplants, Mean", "setting": "embryos from maize ears [2]; TMX 4000 mg/L, 48 hours", "result": 0.37}, {"measurement": "Ears >49 DH Yield, DH Ears/Total Haploids, Mean", "setting": "embryos from maize ears [2]; TMX 4000 mg/L, 48 hours", "result": 0.12}, {"measurement": "Ears >49 DH Yield, DH Ears/Transplants, Mean", "setting": "embryos from maize ears [2]; TMX 4000 mg/L, 48 hours", "result": 0.16}, {"measurement": "Ears >4 DH Yield, DH Ears/Transplants, Mean", "setting": "embryos from maize ears [2]; TMX 6000 mg/L, 24 hours", "result": 0.44}, {"measurement": "Ears >49 DH Yield, DH Ears/Total Haploids, Mean", "setting": "embryos from maize ears [2]; TMX 6000 mg/L, 24 hours", "result": 0.20}, {"measurement": "Ears >49 DH Yield, DH Ears/Transplants, Mean", "setting": "embryos from maize ears [2]; TMX 6000 mg/L, 24 hours", "result": 0.21}, {"measurement": "Ears >4 Rate Mean", "setting": "embryos from maize ears [2]; TMX 4000 mg/L, 48 hours", "result": 30, "unit": "%"}, {"measurement": "Ears >49 Rate Mean", "setting": "embryos from maize ears [2]; TMX 4000 mg/L, 48 hours", "result": 13, "unit": "%"}, {"measurement": "Ears >4 Rate Mean", "setting": "embryos from maize ears [2]; TMX 6000 mg/L, 24 hours", "result": 45, "unit": "%"}, {"measurement": "Ears >49 Rate Mean", "setting": "embryos from maize ears [2]; TMX 6000 mg/L, 24 hours", "result": 24, "unit": "%"}, {"measurement": "Potting Rate Mean", "setting": "isolated embryos; [7]", "result": 92.3, "unit": "%"}, {"measurement": "Transplant Rate Mean", "setting": "isolated embryos; [7]", "result": "90% and 89.7%"}, {"measurement": "Potting Rate Mean", "setting": "isolated embryos; [8]", "result": 79.4, "unit": "%"}, {"measurement": "Transplant Rate Mean", "setting": "isolated embryos; [8]", "result": 72.2, "unit": "%"}, {"measurement": "Potting Rate Mean", "setting": "isolated embryos; [9]", "result": 77.3, "unit": "%"}, {"measurement": "Transplant Rate Mean", "setting": "isolated embryos; [9]", "result": 81.3, "unit": "%"}, {"measurement": "Potting Rate Mean", "setting": "isolated embryos; [10]", "result": 58.0, "unit": "%"}, {"measurement": "Transplant Rate Mean", "setting": "isolated embryos; [10]", "result": 54.0, "unit": "%"}]}
